Among the data in ChEMBL document CHEMBL1127481, “Adenosine deaminase inhibitors. Synthesis and biological evaluation of 4-amino-1-(2(S)-hydroxy-3(R)-nonyl)-1H-imidazo[4,5-c]pyridine (3-deaza-(+)-EHNA) and certain C1' derivatives” (J Med Chem, 1994) are Ki values, retold here.

This assay has as its target T1, Adenosine deaminase (Bos taurus, UniProt P56658).
T1 sequence (P56658 whole entry): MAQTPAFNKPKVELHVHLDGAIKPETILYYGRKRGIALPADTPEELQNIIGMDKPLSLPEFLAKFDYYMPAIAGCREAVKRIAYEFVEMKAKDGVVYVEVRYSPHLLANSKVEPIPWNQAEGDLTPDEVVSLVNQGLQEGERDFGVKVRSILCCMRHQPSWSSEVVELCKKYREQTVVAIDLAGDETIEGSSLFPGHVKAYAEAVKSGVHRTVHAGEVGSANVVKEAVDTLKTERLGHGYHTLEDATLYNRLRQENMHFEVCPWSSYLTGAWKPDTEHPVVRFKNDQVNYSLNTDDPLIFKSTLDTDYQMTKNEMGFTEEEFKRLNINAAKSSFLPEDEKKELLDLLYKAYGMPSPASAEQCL
Briefly: Compound was tested for the inhibition of adenosine deaminase from calf intestinal mucosa.

On to `CCCCCC[C@H]([C@@H](O)CF)n1cnc2c(N)nccc21`, for which the Ki (usually the dissociation constant of the complex between target and ligand, obtained from inhibition or displacement) came out at 4.7 nM. `CCCCCC[C@H]([C@@H](O)CO)n1cnc2c(N)nccc21` came in with an inhibition constant (Ki) of 497 nM.

As for `CCCCCC[C@H]([C@H](C)O)n1cnc2c(N)nccc21`, the Ki was found to be 6.2 nM.
